Measurements from patent publication US20260015322A1, “DELIVERY OF THERAPEUTIC ALKALOID COMPOUNDS” (priority 2022, published 2026).

Columns and labels:
[1] = Plasma Stability Assay (Example A2), mouse plasma; format: in vitro ADME; details: mouse
Protocol: Each test was carried out in duplicate for each time point; 0 min, 15 min, 30 min, 60 min, 120, 240 min. […]

[2] = Pharmacokinetics of 358, single IV 2 mg/kg, plasma and brain; format: in vivo, male C57BL/6 mice; details: 358 IV 2 mg/kg, mice
Protocol: Total fifteen male mice were used in this study with n=3 mice/time point with sparse sampling study design. Animals were administered through intravenous route with solution formulation of 358 at 2 mg/kg dose.
The extraction procedure for plasma/brain samples and the spiked plasma/brain calibration standards were identical (PMSF Stabilized Plasma and Brain used for Preparation of calibration standards):
A 20 μL of study sample plasma/brain or spiked plasma/brain calibration standard was added to individual pre-labeled micro-centrifuge tubes followed by 200 μL of internal standard prepared in acetonitrile (Rosuvastatin+Cetrizine, 50 ng/mL) was added except for blank, where 200 μL of acetonitrile was added. Samples were vortexed for 5 minutes. Samples were centrifuged for 10 minutes at a speed of 4000 rpm at 4° C. Following centrifugation, 200 μL of clear supernatant was transferred in 96 well plates and analyzed using LC-MS/MS.
Note: Brain samples were diluted (1-part of tissue: 2-part of buffer) and homogenized. The homogenate was submitted for bioanalysis and the concentrations (ng/mL) received were corrected with dilution factor (3×) and the final reported concentrations were represented in ng/g.
The plasma and brain concentration-time data of 358 and 001 were used for the pharmacokinetic analysis.

Structure (SMILES): COc1ccc([C@@]23CCC(OC(=O)OC(C)(C)C)=C[C@@H]2N(C)CC3)cc1OC [Compound 358, [(3aS,7aS)-3a-(3,4-dimethoxyphenyl)-1-methyl-3,4,5,7a-tetrahydro-2H-indol-6-yl]tert-butyl carbonate]
- Metabolite (%) ([1]; 0 min, 5 µM): 58.8%
- Metabolite (%) ([1]; 15 min, 5 µM): 65.4%
- Metabolite (%) ([1]; 30 min, 5 µM): 73.2%
- Metabolite (%) ([1]; 60 min): 76.9%
- Metabolite (%) ([1]; 120 min): 61.8%
- Metabolite (%) ([1]; 240 min): 62.2%
- brain concentrations quantifiable up to [2]: ≤ 0.08 h
- plasma concentrations quantifiable up to [2]: up to 0.25 h
